No end group written: not given here.
Key:
[1] = tested on: Staphylococcus aureus; experiment: Filter paper bacteriostatic circle test, Staphylococcus aureus; format: cell-based; settings: 20 μL of liquid medicine diluted by 10 times on 6.5 mm filter paper, 37° C., 24 hours
Description: (§1) In order to confirm the above conjecture, the application verifies the antibacterial effect of the traditional Chinese medicine concentrated solution prepared in each embodiment, and the method is as follows: • (1) taking Staphylococcus aureus and Escherichia coli grown on ordinary nutrient agar plates, dipping a small number of colonies with an inoculating loop, inoculating colonies into 5 mL of Mueller-Hinton (MH) broth, and performing shake culture at 37° C. for 6 hours at 200 r/min; taking bacterial liquid in logarithmic growth period and diluting the bacterial liquid with sterilized physiological saline until the bacterial content is 1-2×10^8 CFU/ml; diluting with sterilized physiological saline for 1000 times for later use; • (2) making a round filter paper with a diameter of 6.5 mm with a puncher, and dry-heat sterilizing it; first, evenly inoculating the bacterial liquid obtained in step (1) into a nutrient agar culture dish, then attaching the sterilized round filter paper to the surface of agar, transferring 20 μL of liquid medicine (diluted by 10 times) with a micropipette gun, dropping the liquid medicine in the center of the round filter paper, culturing it at 37° C. for 24 hours, and measuring the diameter of the bacteriostatic circle in which different liquid medicines are dropped.

[2] = tested on: Escherichia coli; experiment: Filter paper bacteriostatic circle test, Escherichia coli; format: cell-based; settings: 20 μL of liquid medicine diluted by 10 times on 6.5 mm filter paper, 37° C., 24 hours
Description: as §1

[3] = tested on: dairy cows with mastitis; experiment: Therapeutic effect on dairy cows with mastitis (cure judged by sodium hydroxide curdled milk test); format: in vivo; settings: ointments applied externally 2 g each time, twice a day for 5 days, control perfused with penicillin 100,000 IU, tested one day after stopping
Description: Fifty dairy cows with mastitis detected by Shanghai Mastitis Test (SMT) are selected from a dairy farm in Hunan Province, of which 20 cows are externally coated with the traditional Chinese medicine ointment for preventing and treating mastitis in dairy cows prepared in embodiment 1 and 20 cows are externally applied with the traditional Chinese medicine ointment for preventing and treating mastitis in dairy cows prepared in comparative example 1, with the dosage of 2 g each time, twice a day for 5 days. The remaining 10 cows are perfused with penicillin 100,000 IU after all the milk is discharged from their breasts, as a control group.
Cure standard: one day after stopping the ointments, if curdled milk is negative by the sodium hydroxide test, the cows are judged to be cured.

| Substance | Diameter of bacteriostatic circle of Staphylococcus aureus (mm) [1] | Diameter of bacteriostatic circle of Escherichia coli (mm) [2] | Cure rate (%) [3] | Cows (head) with curdled milk being negative by sodium hydroxide test ([3]; 20, 20 and 10 cows per group) |
| --- | --- | --- | --- | --- |
| FFRKVLKLIRKIWR [1 from Hunan University of Science and Engineering, preparation per CN111529683A] | 15.3 mm | 14.7 mm |  |  |
| penicillin [Control group] |  |  | 80% | 8 head |

Source: US12214006B2, “Traditional chinese medicine ointment for preventing and treating mastitis in dairy cows, and preparation method thereof” (Hunan University of Science and Engineering, priority 2022, dated 2025)
